Measured values as given in patent publication US20260007613A1, “LONG-ACTING LOW-TOXICITY NOVEL CATIONIC LIPID COMPOUNDS AND COMPOSITION THEREOF” (BEIJING YOUCAREKECHUANG PHARMACEUTICAL TECHNOLOGY CO., LTD., priority 2023, published 2026).
Several values for one entry are separate records, joined by “and”; a condition that tells them apart may be missing. Equal entries are not always repeated. One block for each molecule: values may come before it.

Legend:
[1] = system: female BALB/C mice; assay: Live imaging in mice: protein expression of Fluc-mRNA delivered by LNP formulations; type: in vivo; settings: for average radiation intensity, times that of ALC-0315: comparator ALC-0315; for average radiation intensity, times that of HHMA: comparator HHMA; for average radiation intensity, times that of SM-102: comparator SM-102; for expression of mRNA in mice, times that of YK-302: comparator YK-302; for expression amount, times that of YK-321: comparator YK-321; for average radiation intensity, times that of compound 21: comparator compound 21; for average radiation intensity, times that of compound 23: comparator compound 23
Method: In addition, the protein expression and duration of mRNA in mice delivered by the cationic lipid delivery carriers designed were also verified.
The LNP formulation containing […] Fluc-mRNA was injected intramuscularly into female BALB/C mice aged 4 to 6 weeks old and weighed 17 to 19 g, and the mice were intraperitoneally injected with fluorescent imaging substrate at specific time points after administration (6 h, 24 h, 48 h and 7 d), where the mice were free to move for 5 minutes, and then the average radiation intensity (corresponding to fluorescence expression intensity) of the protein expression of the mRNA carried by the LNP in the mice was detected by the IVIS Spectrum small animal live imaging device.

[2] = system: 293T cells; assay: Fluorescent detection of Fluc-mRNA (cell transfection efficiency of LNP formulations); type: cell-based; settings: for Relative light unit (RLU): LNP formulation of Fluc-mRNA, 96-well plate, 24 hours; for Multiples (YK-305): RLU of YK-305 / RLU of the lipid of the line; for Multiples (YK-310): RLU of YK-310 / RLU of the lipid of the line; for Multiples (YK-312): RLU of YK-312 / RLU of the lipid of the line; for Multiples (YK-318): RLU of YK-318 / RLU of the lipid of the line; for Multiples (YK-318) / Multiples (YK-319): Tables 5, 7, 11; for Multiples (YK-319): RLU of YK-319 / RLU of the lipid of the line; for Ratio relative to SM-102: RLU of the lipid / RLU of SM-102, times that of SM-102
Method: (§1) Cell recovery and passage: 293T cells were recovered, cultured in a culture dish, and passaged to the required number of cells.
(§2) Seeding plate: The cells in the culture dish were digested and counted. Cells were spread in a 96-well plate at 10,000 cells per well and in a 12-well plate at 150,000 cells per well. Cells were cultured overnight until the cells adhered to the wall.
(§3) Cell recovery and passage: the method was the same as in Example 3.
(§4) Seeding plate: the method was the same as in Example 3.
An LNP formulation containing […] of Fluc-mRNA (the carrier components of the LNP formulation were cationic lipid, neutral lipid, structured lipid and polymer-conjugated lipid with a molar ratio of 49:10:39.5:1.5, wherein the cationic lipid was listed in Table 1) was added to the cell culture medium of a 96-well plate, and further incubated for 24 hours. The corresponding reagent was added according to the instructions of the […] Luciferase Assay Kit, and the fluorescence expression intensity of each well was detected by an IVIS fluorescence detection system. This test verified the transfection efficiencies of LNP formulations in cells, see Tables 4-7 for specific test results.

[3] = Particle size and polydispersity index (PDI) of lipid nanoparticles by dynamic light scattering; type: physicochemical; settings: LNP formulation prepared from the cationic lipid, 25° C.
Method: The particle size and polydispersity index (PDI) were determined by dynamic light scattering using Malvern laser particle size analyzer.
10 μL of the liposome solution was weighed, diluted to 1 mL with RNase-free deionized water, and added to the sample pool. Each sample was measured in triplicate. The measurement conditions were: […] scattering angle, and 25° C.

[4] = system: 293T cells; assay: Cell survival rate determination (CCK-8); type: cell-based; settings: for Cell survival rate (%): LNP formulation of Fluc-mRNA, 24 hours, CCK-8
Method: as §1, §2, §3, §4
An LNP formulation containing […] of Fluc-mRNA (the carrier components of the LNP formulation were cationic lipid, neutral lipid, structured lipid and polymer-conjugated lipid with a molar ratio of 49:10:39.5:1.5, wherein the cationic lipid was listed in Table 1) and the formulation of Lipofectamine 3000 were added to the cell culture medium of a 96-well plate, and further cultivated for 24 hours. 10 μL of CCK-8 solution was then added to each well, and the culture plate was incubated in an incubator for 1 hour. The absorbance at 450 nm was measured by a microplate reader.
Cell survival rate can represent the toxicity of cationic lipids to cells. The higher the cell survival rate, the lower the toxicity to cells.

[5] = 6 h after intramuscular injection
[6] = 24 h after intramuscular injection
[7] = 48 h after intramuscular injection
[8] = 7 d after intramuscular injection

SMILES: CCCCCCCCC(CCCCCCCC)OC(=O)CCCCCN(CCCCCC(=O)OC(CCCCCCCC)CCCCCCCC)C[C@H](O)CN(CCO)CCO [YK-318, (S)-bis(heptadecan-9-yl)-6,6′-((3-(bis(2-hydroxyethyl)amino)-2-hydroxypropyl)azanediyl)dihexanoate]
- average radiation intensity, times that of ALC-0315 ([1]; 6 h): 3.85 times
- average radiation intensity, times that of HHMA ([1]; 6 h): 5.11 times
- average radiation intensity, times that of SM-102 ([1]; 6 h): 4.74 times
- expression of mRNA in mice, times that of YK-302 ([1]; 6 h): 228.10 times
- expression amount, times that of YK-321 ([1]; 6 h): 6.45 times
- average radiation intensity, times that of compound 21 ([1]; 6 h): 5.45 times
- average radiation intensity, times that of compound 23 ([1]; 6 h): 5.64 times
- average radiation intensity [1, 5]: 3325680
- average radiation intensity, times that of ALC-0315 ([1]; 24 h): 5.08 times
- average radiation intensity, times that of HHMA ([1]; 24 h): 8.08 times
- average radiation intensity, times that of SM-102 ([1]; 24 h): 8.04 times
- expression of mRNA in mice, times that of YK-302 ([1]; 24 h): 244.83 times
- expression amount, times that of YK-321 ([1]; 24 h): 9.57 times
- average radiation intensity, times that of compound 21 ([1]; 24 h): 8.82 times
- average radiation intensity, times that of compound 23 ([1]; 24 h): 9.27 times
- average radiation intensity [1, 6]: 968540
- average radiation intensity, times that of ALC-0315 ([1]; 48 h): 8.96 times
- average radiation intensity, times that of HHMA ([1]; 48 h): 10.96 times
- average radiation intensity, times that of SM-102 ([1]; 48 h): 10.96 times
- expression of mRNA in mice, times that of YK-302 ([1]; 48 h): 348.11 times
- expression amount, times that of YK-321 ([1]; 48 h): 9.76 times
- average radiation intensity, times that of compound 21 ([1]; 48 h): 11.52 times
- average radiation intensity, times that of compound 23 ([1]; 48 h): 10.77 times
- average radiation intensity [1, 7]: 356810
- average radiation intensity, times that of ALC-0315 ([1]; 7 d): 7.19 times
- average radiation intensity, times that of HHMA ([1]; 7 d): 8.63 times
- average radiation intensity, times that of SM-102 ([1]; 7 d): 7.65 times
- expression of mRNA in mice, times that of YK-302 ([1]; 7 d): 131.92 times
- expression amount, times that of YK-321 ([1]; 7 d): 7.69 times
- average radiation intensity, times that of compound 21 ([1]; 7 d): 7.86 times
- average radiation intensity, times that of compound 23 ([1]; 7 d): 8.12 times
- average radiation intensity [1, 8]: 50659
- Relative light unit (RLU) [2]: 11190068 RLU
- Multiples (YK-305) [2]: 2.45
- Multiples (YK-310) [2]: 2.31
- Multiples (YK-312) [2]: 1.80
- Multiples (YK-318) [2]: 1.00
- Multiples (YK-319) [2]: 2.19
- Ratio relative to SM-102 [2]: 6.98
- cell transfection efficiency, times that of ALC-0315 ([2]; comparator ALC-0315): 5.50 times
- cell transfection efficiency, times that of HHMA ([2]; comparator HHMA): 5.58 times
- cell transfection efficiency, times that of Lipofectamine 3000 ([2]; comparator Lipofectamine 3000): 9.44 times
- cell transfection efficiency, times that of YK-009 ([2]; comparator YK-009): 2.19 times
- cell transfection efficiency, times that of YK-301 ([2]; comparator YK-301): 13.28 times
- cell transfection efficiency, times that of YK-302 ([2]; comparator YK-302): 402.84 times
- cell transfection efficiency, times that of YK-303 ([2]; comparator YK-303): 17.87 times
- cell transfection efficiency, times that of YK-304 ([2]; comparator YK-304): ~400 times and 540.95 times
- cell transfection efficiency, times that of YK-306 ([2]; comparator YK-306): 5.09 times
- cell transfection efficiency, times that of YK-307 ([2]; comparator YK-307): 2.46 times
- cell transfection efficiency, times that of YK-308 ([2]; comparator YK-308): 4.86 times
- cell transfection efficiency, times that of YK-309 ([2]; comparator YK-309): ~90 times and 89.26 times
- cell transfection efficiency, times that of YK-311 ([2]; comparator YK-311): 5.70 times
- cell transfection efficiency, times that of YK-313 ([2]; comparator YK-313): 12.91 times
- cell transfection efficiency, times that of YK-314 ([2]; comparator YK-314): 20.44 times
- cell transfection efficiency, times that of YK-315 ([2]; comparator YK-315): 7.05 times
- cell transfection efficiency, times that of YK-316 ([2]; comparator YK-316): 2.33 times
- cell transfection efficiency, times that of YK-317 ([2]; comparator YK-317): 3.10 times
- cell transfection efficiency, times that of YK-320 ([2]; comparator YK-320): 4.14 times
- cell transfection efficiency, times that of YK-321 ([2]; comparator YK-321): 7.97 times
- cell transfection efficiency, times that of compound 21 ([2]; comparator compound 21): 7.81 times
- cell transfection efficiency, times that of compound 23 ([2]; comparator compound 23): 8.25 times
- PDI (%) [3]: 14.8%
- Particle size (nm) [3]: 173 nm
- Cell survival rate (%) [4]: 75.56%
- cell survival rate higher than ALC-0315 ([4]; difference of survival rates, comparator ALC-0315): 24.53%
- cell survival rate higher than HHMA ([4]; difference of survival rates, comparator HHMA): 9.09%
- cell survival rate higher than Lipofectamine 3000 ([4]; difference of survival rates, comparator Lipofectamine 3000): 50.55%
- cell survival rate higher than SM-102 ([4]; difference of survival rates, comparator SM-102): 6.11%
- cell survival rate higher than YK-301 ([4]; difference of survival rates, comparator YK-301): 22.60%
- cell survival rate higher than YK-302 ([4]; difference of survival rates, comparator YK-302): 59.13%
- cell survival rate higher than YK-303 ([4]; difference of survival rates, comparator YK-303): 12.24%
- cell survival rate higher than YK-304 ([4]; difference of survival rates, comparator YK-304): 41.40%
- cell survival rate higher than YK-306 ([4]; difference of survival rates, comparator YK-306): 33.37%
- cell survival rate higher than YK-307 ([4]; difference of survival rates, comparator YK-307): 14.42%
- cell survival rate higher than YK-308 ([4]; difference of survival rates, comparator YK-308): 4.57%
- cell survival rate higher than YK-309 ([4]; difference of survival rates, comparator YK-309): 43.95%
- cell survival rate higher than YK-311 ([4]; difference of survival rates, comparator YK-311): 5.50%
- cell survival rate higher than YK-313 ([4]; difference of survival rates, comparator YK-313): 6.63%
- cell survival rate higher than YK-314 ([4]; difference of survival rates, comparator YK-314): 7.68%
- cell survival rate higher than YK-315 ([4]; difference of survival rates, comparator YK-315): 4.28%
- cell survival rate higher than YK-316 ([4]; difference of survival rates, comparator YK-316): 5.03%
- cell survival rate higher than YK-317 ([4]; difference of survival rates, comparator YK-317): 16.38%
- cell survival rate higher than YK-320 ([4]; difference of survival rates, comparator YK-320): 4.49%
- cell survival rate higher than YK-321 ([4]; difference of survival rates, comparator YK-321): 3.22%
- cell survival rate higher than compound 21 ([4]; difference of survival rates, comparator compound 21): 5.35%
- cell survival rate higher than compound 23 ([4]; difference of survival rates, comparator compound 23): 4.06%

- PDI (%) [3]: 39.1%
- Particle size (nm) [3]: 182 nm
SMILES: CCCCCCCCCCC(CCCCCCCCCC)CCCOC(=O)CCCN(CCCC(=O)OCCCC(CCCCCCCCCC)CCCCCCCCCC)C[C@H](O)CN(CCO)CCO [YK-321, (S)-bis(4-decyltetradecyl)-4,4′-((3-(bis(2-hydroxyethyl)amino)-2-hydroxypropyl)azanediyl)dibutyrate]
- average radiation intensity [1, 5]: 615600
- average radiation intensity [1, 6]: 101230
- average radiation intensity [1, 7]: 36565
- average radiation intensity [1, 8]: 6586
- Relative light unit (RLU) [2]: 1403416 RLU
- Multiples (YK-305) [2]: 18.33
- Multiples (YK-310) [2]: 18.38
- Multiples (YK-312) [2]: 14.36
- Multiples (YK-318) [2]: 7.97
- Multiples (YK-319) [2]: 17.43
- Ratio relative to SM-102 [2]: 0.87
- Cell survival rate (%) [4]: 72.34%
